The values that follow are results of earlier work, collected in patent publication US20020052320A1, “Sustained peptide-release formulation” (Peptech Limited, priority 1996, published 2002).

Data set [1] concerns advanced prostatic cancer. To be noted: monthly subcutaneous injections.
The subject of a further data set is prostate cancer in rats. To be noted: controlled dose over 30 days vs equivalent or double doses of free peptide.

Turning to `CC(C)C[C@H](NC(=O)[C@@H](COC(C)(C)C)NC(=O)[C@H](Cc1ccc(O)cc1)NC(=O)[C@H](CO)NC(=O)[C@H](Cc1c[nH]c2ccccc12)NC(=O)[C@H](Cc1cnc[nH]1)NC(=O)[C@@H]1CCC(=O)N1)C(=O)N[C@@H](CCCNC(=N)N)C(=O)N1CCC[C@H]1C(=O)NNC(N)=O` [goserelin, 3-[5-oxo-L-prolyl-L-tryptophyl-L-seryl-L-tyrosyl-(3-O-tert-butyl)-D-seryl-L-1eucyl-L-arginyl-L-prolyl]cabazamide acetate], in data set [1], the “efficacy compared with orchiectomy” value is “as effective as orchiectomy” and the tolerability entry is reported as “well tolerated”.

For `CC(C)C[C@H](NC(=O)[C@@H](Cc1c[nH]c2ccccc12)NC(=O)[C@H](Cc1ccc(O)cc1)NC(=O)[C@H](CO)NC(=O)[C@H](Cc1c[nH]c2ccccc12)NC(=O)[C@H](Cc1c[nH]cn1)NC(=O)[C@@H]1CCC(=O)N1)C(=O)N[C@@H](CCCNC(=N)N)C(=O)N1CCC[C@H]1C(=O)NCC(N)=O` [triptorelin, 5-oxo-L-prolyl-L-histidyl-L-tryptophyl-L-seryl-L-tyrosyl-D-tryptophyl-L-leucyl-L-arginyl-L-prolylglycinamide], in the data set with prostate cancer in rats, the “suppression of prostate tumour weight, microencapsulated form vs daily subcutaneous free peptide” value is listed as “more effective” and the “suppression of serum testosterone levels, microencapsulated form vs daily subcutaneous free peptide” value is “more effective”.
